Results on ten compounds are retold here after US11299478B2, “2-cyanopyrimidin-4-yl carbamate or urea derivative or salt thereof, and pharmaceutical composition including same” (HANLIM PHARMACEUTICAL CO., LTD., priority 2018, dated 2022).

SMILES strings stand for the structures.

Holding throughout (format): biochemical
One experiment concerns the target T1, cathepsin K (Homo sapiens, UniProt P43235).
T1 sequence (P43235 115-329): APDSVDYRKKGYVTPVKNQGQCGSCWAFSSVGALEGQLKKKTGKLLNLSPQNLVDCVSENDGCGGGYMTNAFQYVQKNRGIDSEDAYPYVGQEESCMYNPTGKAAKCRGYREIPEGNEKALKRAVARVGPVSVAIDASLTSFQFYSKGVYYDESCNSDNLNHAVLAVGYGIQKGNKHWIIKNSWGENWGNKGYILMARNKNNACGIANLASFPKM
The experiment can be described thus: Inhibitory activity assay against cathepsin K (enzyme assay). To be noted: Z-Phe-Arg-AMC 10 μM, enzyme 1 nM, pH 5.5, 30 minutes. The method in brief: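 IC50 by 4-parameter logistic fit of fluorescence (ex 355 nm, em 460 nm) after 30 min reaction. Compound tested at 10 final concentrations from 10.0 μM down to 0.000508 μM against 1 nM enzyme and 10 μM Z-Phe-Arg-AMC, in MES buffer pH 5.5 with DTT, EDTA, Triton X-100 and 10% DMSO.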

In another experiment the target is cathepsin B (Homo sapiens, UniProt P07858). As to the kind of experiment: Inhibitory activity assay against cathepsin B (enzyme assay). To be noted: Z-Arg-Arg-AMC 40 μM, enzyme 1 nM, pH 6.0, 90 minutes. In a few lines: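 Reaction run 90 min in MES buffer pH 6.0 containing DTT, EDTA, Polysorbate 20 and 10% DMSO, using 40 μM fluorogenic Z-Arg-Arg-AMC and 1 nM cathepsin B. Ten compound levels from 10.0 μM; AMC fluorescence at ex 340/em 460 nm fitted to a 4-parameter logistic for IC50.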

The target in a further experiment is cathepsin L (Homo sapiens, UniProt P07711). The experiment can be described thus: Inhibitory activity assay against cathepsin L (enzyme assay). The conditions noted are these: Z-Phe-Arg-AMC 2 μM, enzyme 3 nM, pH 5.5, 30 minutes. In a few lines: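 IC50s came from 4-parameter logistic fits of ten concentrations (10.0 μM down to 0.000508 μM). Reaction: 30 min, 3 nM enzyme, 2 μM Z-Phe-Arg-AMC, pH 5.5 MES buffer containing DTT, EDTA, Polysorbate 20 and 10% DMSO; fluorescence read 340/460 nm.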

Another experiment deals with cathepsin S (Homo sapiens, UniProt P25774). As to the kind of experiment: Inhibitory activity assay against cathepsin S (enzyme assay). To be noted: Z-Phe-Arg-AMC 70 μM, enzyme 3 nM, pH 6.5, 45 minutes. In a few lines:
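Ten-point compound titration (10.0 to 0.000508 μM final) reacted 45 min with 3 nM cathepsin S and 70 μM Z-Phe-Arg-AMC in MES 50 mM pH 6.5, DTT 2.5 mM, EDTA 1.0 mM, BSA 0.001%, DMSO 10%. AMC release read at 340/460 nm; IC50 from four-parameter logistic fit.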

Sequence of cathepsin L (P07711 114-333, species assumed): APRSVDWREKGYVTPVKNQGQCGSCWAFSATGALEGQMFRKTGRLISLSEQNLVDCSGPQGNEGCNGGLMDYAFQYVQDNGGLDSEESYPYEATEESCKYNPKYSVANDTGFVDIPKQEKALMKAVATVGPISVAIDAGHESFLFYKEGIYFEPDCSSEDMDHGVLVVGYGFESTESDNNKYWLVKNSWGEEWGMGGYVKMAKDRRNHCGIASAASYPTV
Sequence of cathepsin S (P25774 115-331, species assumed): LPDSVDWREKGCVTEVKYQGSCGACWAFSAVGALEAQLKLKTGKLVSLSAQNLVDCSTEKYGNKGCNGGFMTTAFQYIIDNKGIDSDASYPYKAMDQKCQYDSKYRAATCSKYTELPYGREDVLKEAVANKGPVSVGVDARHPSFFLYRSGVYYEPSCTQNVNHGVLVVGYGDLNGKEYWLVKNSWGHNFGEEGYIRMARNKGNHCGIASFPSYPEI

For `N#Cc1nccc(C2(NC(=O)Nc3ccc(-c4cccc(F)c4)cc3)CCCCC2)n1` [Example 123, 1-(1-(2-cyanopyrimidin-4-yl)cyclohexyl)-3-(3′-fluoro-[1,1′-biphenyl]-4-yl)urea], the IC50 at cathepsin K was 10.2 nM; against cathepsin B, over 10000 nM; at cathepsin L, over 10000 nM; against cathepsin S it was over 10000 nM.

Turning to `Cn1ncc2ccc(-c3ccc(NC(=O)NC4(c5ccnc(C#N)n5)CCCCC4)cc3)cc21` [Example 118, 1-(1-(2-cyanopyrimidin-4-yl)cyclohexyl)-3-(4-(1-methyl-1H-indazol-6-yl)phenyl)urea], the IC50 at cathepsin K was 16.6 nM; against cathepsin B it was over 10000 nM; on cathepsin L, over 10000 nM; against cathepsin S it was over 10000 nM.

Regarding `N#Cc1nccc(C2(NC(=O)Nc3ccc(-c4ccc(S(N)(=O)=O)cc4)c(C(F)(F)F)c3)CCCCC2)n1` [Example 179, 4′-(3-(1-(2-cyanopyrimidin-4-yl)cyclohexyl)ureido)-2′-(trifluoromethyl)-[1,1′-biphenyl]-4-sulfonamide], the IC50 at cathepsin K is 11.5 nM; at cathepsin B, over 10000 nM; at cathepsin L it was 7530 nM; at cathepsin S, 2760 nM.

On to `COc1ccc(-c2ccc(NC(=O)NC3(c4ccnc(C#N)n4)CCCCC3)cc2)cn1` [Example 127, 1-(1-(2-cyanopyrimidin-4-yl)cyclohexyl)-3-(4-(6-methoxypyridin-3-yl)phenyl)urea], for which the IC50 on cathepsin K is 10.9 nM; on cathepsin B it was over 10000 nM; at cathepsin L it was over 10000 nM; against cathepsin S it was over 10000 nM.

For the compound `N#Cc1nccc(C2(NC(=O)NCc3cccc4ccccc34)CCCC2)n1` [Example 55, 1-(1-(2-cyanopyrimidin-4-yl)cyclopentyl)-3-(naphthalen-1-ylmethyl)urea], the IC50 was 19.5 nM at cathepsin K, 5660 nM against cathepsin B, over 10000 nM on cathepsin L and over 10000 nM against cathepsin S.

For the compound `N#Cc1nccc(C2(NC(=O)Nc3cccc(C(F)(F)F)c3)CCCCC2)n1` [Example 89, 1-(1-(2-cyanopyrimidin-4-yl)cyclohexyl)-3-(3-(trifluoromethyl)phenyl)urea], the IC50 on cathepsin K was 3.8 nM; at cathepsin B it was over 10000 nM; against cathepsin L, 6890 nM; on cathepsin S it was over 10000 nM.

Regarding `N#Cc1nccc(C2(NC(=O)Nc3ccc(-c4ccc(C(=O)NCCn5nccn5)cc4)c(F)c3)CCCCC2)n1` [Example 188, N-(2-(2H-1,2,3-triazol-2-yl)ethyl)-4′-(3-(1-(2-cyanopyrimidin-4-yl)cyclohexyl)ureido)-2′-fluoro-[1,1′-biphenyl]-4-carboxamide], the IC50 on cathepsin K is 16.1 nM; against cathepsin B it was over 10000 nM; at cathepsin L, over 10000 nM; against cathepsin S, 4330 nM.

Turning to `N#Cc1nccc(C2(NC(=O)Nc3ccc(-c4ccc(S(=O)(=O)C(F)(F)F)cc4)cc3)CCCCC2)n1` [Example 169, 1-(1-(2-cyanopyrimidin-4-yl)cyclohexyl)-3-(4′-((trifluoromethyl)sulfonyl)-[1,1′-biphenyl]-4-yl)urea], the IC50 at cathepsin K is 74 nM; against cathepsin B, over 10000 nM; on cathepsin L it was over 10000 nM; at cathepsin S it was 3600 nM.

As to `N#Cc1nccc(C2(NC(=O)Nc3ccc(-c4ccc(OCCN)cc4)cc3)CCCCC2)n1` [Example 190, 1-(4′-(2-aminoethoxy)-[1,1′-biphenyl]-4-yl)-3-(1-(2-cyanopyrimidin-4-yl)cyclohexyl)urea], the IC50 on cathepsin K was 0.3 nM; at cathepsin B it was 7870 nM; on cathepsin L it was over 10000 nM; against cathepsin S it was over 10000 nM.

In the case of `CS(=O)(=O)Nc1ccc(-c2ccc(NC(=O)NC3(c4ccnc(C#N)n4)CCCCC3)cc2C(F)(F)F)cc1` [Example 180, N-(4′-(3-(1-(2-cyanopyrimidin-4-yl)cyclohexyl)ureido)-2′-(trifluoromethyl)-[1,1′-biphenyl]-4-yl)methanesulfonamide], the IC50 at cathepsin K is 10.9 nM; against cathepsin B, over 10000 nM; against cathepsin L, over 10000 nM; against cathepsin S, over 10000 nM.
